Reference: PubChem BioAssay AID248 (DTP/NCI, 2004)
Where “and” joins values, the source holds several entries; their conditions need not be identical. Identical values can stand only once. Inconclusive results and toxic doses are left out. Cut-off read from the data, not from the text of the source: active = T/C of 150% or more; inactive = T/C below 125%.

Test system: L1210 leukemia ip in BDF1 mice, survival T/C
Assay: NCI In Vivo Anticancer Drug Screen. Data for tumor model L1210 Leukemia (intraperitoneal) in B6D2F1 (BDF1) mice
Details: endpoint: mean survival time, higher = longer survival
Procedure, shortened: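 Read-out is survival time, reported as the treated-group measurement over the vehicle-control measurement.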

[1] = dose: 100.0 mg/kg/injection, schedule: Q04DX003 (ip), vehicle: saline
[2] = dose: 200.0 mg/kg/injection, schedule: Q04DX003 (ip), vehicle: saline
[3] = dose: 400.0 mg/kg/injection, schedule: Q04DX003 (ip), vehicle: saline
[4] = dose: 50.0 mg/kg/injection, schedule: Q01DX001 (ip), vehicle: carboxymethylcellulose (CMC)
[5] = dose: 200.0 mg/kg/injection, schedule: Q01DX001 (ip), vehicle: carboxymethylcellulose (CMC)
[6] = dose: 100.0 mg/kg/injection, schedule: Q01DX001 (ip), vehicle: saline
[7] = dose: 100.0 mg/kg/injection, schedule: Q01DX009 (ip), vehicle: Klucel (hydroxypropylcellulose) (HPC)
[8] = dose: 100.0 mg/kg/injection, schedule: Q04DX003 (ip), vehicle: Klucel (hydroxypropylcellulose) (HPC)
[9] = dose: 200.0 mg/kg/injection, schedule: Q01DX001 (ip), vehicle: saline
[10] = dose: 200.0 mg/kg/injection, schedule: Q01DX009 (ip), vehicle: Klucel (hydroxypropylcellulose) (HPC)
[11] = dose: 200.0 mg/kg/injection, schedule: Q04DX003 (ip), vehicle: Klucel (hydroxypropylcellulose) (HPC)
[12] = dose: 400.0 mg/kg/injection, schedule: Q01DX001 (ip), vehicle: saline
[13] = dose: 400.0 mg/kg/injection, schedule: Q01DX009 (ip), vehicle: Klucel (hydroxypropylcellulose) (HPC)
[14] = dose: 400.0 mg/kg/injection, schedule: Q04DX003 (ip), vehicle: Klucel (hydroxypropylcellulose) (HPC)
[15] = dose: 100.0 mg/kg/injection, schedule: Q04DX002 (ip), vehicle: saline with Tween-80
[16] = dose: 200.0 mg/kg/injection, schedule: Q04DX002 (ip), vehicle: saline with Tween-80
[17] = dose: 400.0 mg/kg/injection, schedule: Q04DX002 (ip), vehicle: saline with Tween-80
[18] = dose: 100.0 mg/kg/injection, schedule: Q01DX009 (ip), vehicle: saline
[19] = dose: 200.0 mg/kg/injection, schedule: Q01DX009 (ip), vehicle: saline
[20] = dose: 100.0 mg/kg/injection, schedule: Q04DX002 (ip), vehicle: Klucel (hydroxypropylcellulose) (HPC)
[21] = dose: 200.0 mg/kg/injection, schedule: Q04DX002 (ip), vehicle: Klucel (hydroxypropylcellulose) (HPC)
[22] = dose: 400.0 mg/kg/injection, schedule: Q04DX002 (ip), vehicle: Klucel (hydroxypropylcellulose) (HPC)
[23] = dose: 100.0 mg/kg/injection, schedule: Q01DX009 (ip), vehicle: saline with Tween-80
[24] = dose: 200.0 mg/kg/injection, schedule: Q01DX009 (ip), vehicle: saline with Tween-80
[25] = dose: 400.0 mg/kg/injection, schedule: Q01DX009 (ip), vehicle: saline with Tween-80
[26] = dose: 12.5 mg/kg/injection, schedule: Q01DX009 (ip), vehicle: saline
[27] = dose: 25.0 mg/kg/injection, schedule: Q01DX009 (ip), vehicle: saline
[28] = dose: 25.0 mg/kg/injection, schedule: Q04DX003 (ip), vehicle: saline
[29] = dose: 50.0 mg/kg/injection, schedule: Q04DX003 (ip), vehicle: saline
[30] = dose: 50.0 mg/kg/injection, schedule: Q04DX002 (ip), vehicle: saline with Tween-80
[31] = dose: 100.0 mg/kg/injection, schedule: Q01DX001 (ip), vehicle: Klucel (hydroxypropylcellulose) (HPC)
[32] = dose: 200.0 mg/kg/injection, schedule: Q01DX001 (ip), vehicle: Klucel (hydroxypropylcellulose) (HPC)
[33] = dose: 400.0 mg/kg/injection, schedule: Q01DX001 (ip), vehicle: Klucel (hydroxypropylcellulose) (HPC)

Measured: T/C

NC(=O)NC(=O)C1C2CC3OC(=O)C1C3C2 (stereo not given)
inactive: [1] 93 % of control | [2] 93 % of control | [3] 98 % of control

C=CCCCCCCC=C
inactive: [4] 93 % of control | [5] 88 % of control | dose: 400.0 mg/kg/injection, schedule: Q01DX001 (ip), vehicle: carboxymethylcellulose (CMC) 93 % of control

CS(=O)(=O)OCC1CCCO1 (stereo not given)
inactive: dose: 50.0 mg/kg/injection, schedule: Q01DX001 (ip), vehicle: saline 107 % of control | [6] 98 % of control | [7] 98 % of control | [8] 108 % of control | [9] 98 % of control | [10] 111 % of control | [11] 103 % of control | [12] 101 % of control | [13] 93 % of control | [14] 104 % of control

CSc1ccc(OC(=O)Nc2ccccc2C)cc1C
inactive: [15] 100 % of control | [16] 100 % of control | [17] 118 % of control

CCN1CCCC(Nc2cc(C)nc(/N=C(\N)Nc3ccc(Cl)c(Cl)c3)n2)C1 (stereo not given)
inactive: dose: 75.0 mg/kg/injection, schedule: Q01DX001 (ip), vehicle: saline 92 % of control

CC1C[N+](C)(C)NC1=O (stereo not given)
inactive: [6] 98 % of control | [18] 103 % of control | [9] 103 % of control | [19] 107 % of control | [12] 92 % of control | dose: 400.0 mg/kg/injection, schedule: Q01DX009 (ip), vehicle: saline 91 % of control

CC1(O)C2CC3CC(C2)CC1C3 (stereo not given)
inactive: [20] 113 % of control | [21] 98 % of control and 87 % of control | [22] 94 % of control

O=C(NC(C(O)CO)C(OC(=O)c1ccccc1)C(O)CO)c1ccccc1 (stereo not given)
inactive: [23] 105 % of control | [24] 94 % of control | [25] 94 % of control

NCCc1ccc(OCc2ccccc2)c(OCc2ccccc2)c1
inactive: [26] 108 % of control | dose: 12.5 mg/kg/injection, schedule: Q04DX003 (ip), vehicle: saline 98 % of control | [27] 97 % of control | [28] 102 % of control | [29] 98 % of control

CC1(O)CSC(C)(O)CS1 (stereo not given)
inactive: [30] 98 % of control | [15] 88 % of control

CCCCCCCCCCCCCCCCN(C)S(=O)(=O)c1ccc(N2CCOCC2)c(N)c1
inactive: dose: 100.0 mg/kg/injection, schedule: Q04DX003 (ip), vehicle: gum acacia 88 % of control | dose: 200.0 mg/kg/injection, schedule: Q04DX003 (ip), vehicle: gum acacia 93 % of control | dose: 400.0 mg/kg/injection, schedule: Q04DX003 (ip), vehicle: gum acacia 86 % of control

CC1=NC(C)(C)CO1
inactive: [6] 101 % of control | [9] 97 % of control | [12] 95 % of control

O=C1c2ccccc2C(=O)N1CNc1ccccc1Cl
inactive: [23] 93 % of control | [15] 98 % of control | [24] 93 % of control | [16] 91 % of control | [25] 100 % of control | [17] 88 % of control

COC(=O)C(O)C(O)C(O)C(O)C(=O)OC (stereo not given)
inactive: [30] 101 % of control | [15] 96 % of control | [16] 90 % of control | [17] 93 % of control

Nc1cc([N+](=O)[O-])cc([N+](=O)[O-])c1
inactive: [4] 109 % of control | dose: 100.0 mg/kg/injection, schedule: Q01DX001 (ip), vehicle: carboxymethylcellulose (CMC) 118 % of control | [5] 113 % of control

CSc1ncnc2c1ncn2CC(=O)[C@@]1(O)CC[C@H]2[C@@H]3CCC4=CC(=O)CC[C@]4(C)[C@H]3[C@@H](O)C[C@@]21C
inactive: dose: 100.0 mg/kg/injection, schedule: Q01DX001 (sc), vehicle: steriod suspending solution 99 % of control | dose: 200.0 mg/kg/injection, schedule: Q01DX001 (sc), vehicle: steriod suspending solution 100 % of control | dose: 400.0 mg/kg/injection, schedule: Q01DX001 (sc), vehicle: steriod suspending solution 100 % of control

CN(C)CCCN1c2ccccc2S(=O)c2ccc(Cl)cc21 (stereo not given)
inactive: [26] 96 % of control | [27] 102 % of control | [28] 109 % of control | dose: 50.0 mg/kg/injection, schedule: Q01DX009 (ip), vehicle: saline 111 % of control | [29] 106 % of control | [18] 96 % of control | [1] 95 % of control | [19] 107 % of control | [2] 103 % of control

O=C(O)/C=C\C(=O)Nc1ccc2c(c1)OCO2
inactive: [7] 98 % of control | [10] 94 % of control | [13] 91 % of control

Nc1[nH]nc2nc(-c3ccc(Cl)cc3)cnc12
inactive: dose: 50.0 mg/kg/injection, schedule: Q01DX009 (ip), vehicle: saline with Tween-80 104 % of control | [23] 101 % of control | dose: 100.0 mg/kg/injection, schedule: Q04DX003 (ip), vehicle: saline with Tween-80 95 % of control | [24] 98 % of control | dose: 200.0 mg/kg/injection, schedule: Q04DX003 (ip), vehicle: saline with Tween-80 95 % of control

O=C(c1ccccc1)C1CCC1
inactive: [7] 92 % of control | [1] 101 % of control | [10] 98 % of control | [2] 97 % of control | [13] 92 % of control | [3] 97 % of control

Cc1cc2c(cc1C)C1(c3ccc(Cl)cc3)OC2(c2ccc(Cl)cc2)C2C(=O)OC(=O)C21 (stereo not given)
inactive: [31] 94 % of control | [32] 92 % of control | [33] 97 % of control

COC(=O)C1CCC(=O)CC1
inactive: dose: 100.0 mg/kg/injection, schedule: Q04DX002 (ip), vehicle: saline 96 % of control | dose: 200.0 mg/kg/injection, schedule: Q04DX002 (ip), vehicle: saline 101 % of control | dose: 400.0 mg/kg/injection, schedule: Q04DX002 (ip), vehicle: saline 99 % of control

O=C(O)/C(=C\c1ccc([N+](=O)[O-])cc1)c1cccc(Cl)c1
inactive: [31] 108 % of control | [7] 96 % of control and 97 % of control | [20] 94 % of control and 89 % of control | [8] 106 % of control | [32] 103 % of control | [10] 97 % of control and 102 % of control | [21] 101 % of control and 102 % of control | [11] 97 % of control | [33] 98 % of control | [22] 99 % of control | [14] 99 % of control

CC(=O)OC1CCC2(C)C(=CC(=O)C3C4CCC(C(C)C)C4CCC32)C1 (stereo not given)
inactive: dose: 75.0 mg/kg/injection, schedule: Q01DX009 (sc), vehicle: steriod suspending solution 95 % of control | dose: 75.0 mg/kg/injection, schedule: Q04DX003 (sc), vehicle: steriod suspending solution 94 % of control | dose: 150.0 mg/kg/injection, schedule: Q01DX009 (sc), vehicle: steriod suspending solution 109 % of control | dose: 150.0 mg/kg/injection, schedule: Q04DX003 (sc), vehicle: steriod suspending solution 98 % of control | dose: 300.0 mg/kg/injection, schedule: Q01DX009 (sc), vehicle: steriod suspending solution 108 % of control | dose: 300.0 mg/kg/injection, schedule: Q04DX003 (sc), vehicle: steriod suspending solution 94 % of control

O=[N+]([O-])c1ccc(OCc2ccc(S(=O)(=O)F)cc2)c(Cl)c1
inactive: dose: 100.0 mg/kg/injection, schedule: Q04DX003 (ip), vehicle: other 97 % of control | dose: 200.0 mg/kg/injection, schedule: Q04DX003 (ip), vehicle: other 97 % of control | dose: 400.0 mg/kg/injection, schedule: Q04DX003 (ip), vehicle: other 92 % of control
